According to US7045529B2, “Imidazopyrimidinyl and imidazopyri dinyl derivatives” (Bristol-Myers Squibb Company, priority 1999, dated 2006):

Key:
[1] = system: “anxiogenic” effects of CRF; conditions: cited from earlier work; for effect on the “anxiogenic” effects / actions of CRF in the conflict test: rats, literature (Britton et al.)

SMILES | melting point [°C] | effect on the “anxiogenic” effects / actions of CRF in the conflict test [1] | behavioral activity alone in the operant conflict test ([1]; compound alone, without CRF, literature (Britton et al. 1988))
CCc1nc2c(-c3ccc(OC(F)(F)F)cc3Cl)ncnc2n1C(C1CC1)C1CC1 [Example 8, 6-(2-Chloro-4-trifluoromethoxyphenyl)-9-dicyclopropylmethyl-8-ethylpurine] | 119 to 120 | – | –
CCCC(C)n1c(CC)nc2c(-c3ccc(OC(F)F)cc3Cl)ncnc21 (centres unmarked) [Example 10, 6-(2-Chloro-4-difluoromethoxyphenyl)-8-ethyl-9-(2-pentyl)purine] | 99 to 100 | – | –
CNC(=O)c1cc2c(cn1)[nH]c1ccccc12 [FG7142] | – | enhanced the actions of CRF | –
CCOC(=O)c1ncn2c1CN(C)C(=O)c1cc(F)ccc1-2 [Ro15-1788] | – | reversed the effects of CRF in a dose-dependent manner | without behavioral activity alone
